Experiments:
[1] = test system: Serratia marcescens expressing IMP-1 (CL5741); assay: Antibiotic potentiation activity: synergistic concentration (MITC95) with imipenem, OD600 growth; type: cell-based; settings: concentration giving 95% inhibition of bacterial growth
Procedure, shortened: (§1)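 Absorbance after a 22–24 h, 35 °C incubation served as the read-out. Wells held bacteria (saline suspension diluted 1:100 into 1.1× CAMHB), imipenem at 4 μg/ml final or optionally 1 μg/ml, and test compound.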

[2] = test system: Escherichia coli expressing NDM-1 (CLB30016); assay: as above; type: cell-based; settings: concentration giving 95% inhibition of bacterial growth
Procedure, shortened: as §1

[3] = test system: Escherichia coli expressing NDM-1 (CLB30005); assay: as above; type: cell-based; settings: concentration giving 95% inhibition of bacterial growth
Procedure, shortened: as §1

[4] = test system: Klebsiella pneumoniae expressing VIM-1 (IHMA599644); assay: as above; type: cell-based; settings: concentration giving 95% inhibition of bacterial growth
Procedure, shortened: as §1

IMP-1 = IMP-1 (Serratia marcescens, UniProt P52699); assay: biochemical; type: biochemical; settings: fluorescence assay with CCF2-FA substrate; read-out: IMP-1 IC50
Sequence of IMP-1 (P52699 whole entry, looked up): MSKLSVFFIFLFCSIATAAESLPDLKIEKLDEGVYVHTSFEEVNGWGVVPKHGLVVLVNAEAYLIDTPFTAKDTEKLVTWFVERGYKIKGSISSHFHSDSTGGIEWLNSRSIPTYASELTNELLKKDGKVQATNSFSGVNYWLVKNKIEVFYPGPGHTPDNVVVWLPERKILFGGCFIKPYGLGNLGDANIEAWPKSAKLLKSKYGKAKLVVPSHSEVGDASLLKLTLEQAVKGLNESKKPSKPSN

VIM-1 = VIM-1 (Pseudomonas aeruginosa (strain ATCC 15692 / DSM 22644 / CIP 104116 / JCM 14847 / LMG 12228 / 1C / PRS 101 / PAO1), UniProt A0A0F7KYQ8); assay: Enzyme activity: determination of IC50, fluorescence assay with CCF2-FA substrate (VIM-1); type: biochemical; settings: VIM-1 IC50, fluorescence assay with CCF2-FA substrate
NDM-1 = NDM-1 (Klebsiella pneumoniae, UniProt C7C422); assay: biochemical; type: biochemical; settings: fluorescence assay with CCF2-FA substrate; read-out: NDM-1 IC50
Sequence of NDM-1 (C7C422 whole entry, looked up, species assumed): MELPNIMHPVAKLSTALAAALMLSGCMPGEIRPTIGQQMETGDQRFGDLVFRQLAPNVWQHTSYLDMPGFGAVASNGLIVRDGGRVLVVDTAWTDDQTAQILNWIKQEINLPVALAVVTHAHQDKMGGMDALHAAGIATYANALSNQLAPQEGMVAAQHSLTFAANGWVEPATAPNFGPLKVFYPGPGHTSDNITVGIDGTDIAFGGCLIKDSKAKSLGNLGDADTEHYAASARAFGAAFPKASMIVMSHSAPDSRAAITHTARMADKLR
Experimental: Enzyme Activity: Determination of IC50
The Class B enzyme activities were measured in the presence of the test inhibitor in a fluorescence assay against a commercially available substrate consisting of a cephalosporin core linking 7-hydroxycoumarin to fluorescein (CCF2-FA). The enzyme (NDM-1, IMP-1 or VIM-1) and the substrate were diluted in 100 mM KH2PO4 buffer (pH 7) containing 0.005% Tween-20 and 10 μM ZnSO4. […] The test inhibitor was dissolved in dimethylsulfoxide and diluted 1:50 in the assay, resulting in a final concentration range of 20 uM to 0.00063 uM. In a 384-well microplate, the test inhibitor was incubated with the metallo-β-lactamase enzyme and the substrate for 2 hours at 25° C. Fluorescence at 460 nm following excitation at 405 nm was measured. The IC50 value was determined from semi-logarithmic plots of enzyme inhibition versus inhibitor concentration, with a curve generated using a 4-parameter fit.

## CS(=O)(=O)Nc1ccc(-c2cccc(S(N)(=O)=O)c2-c2nn[nH]n2)cc1 [Example 82, 4′-[(methylsulfonyl)amino]-2-(2H-tetrazol-5-yl)biphenyl-3-sulfonamide]
[1]
  Serratia marcescens expressing IMP-1 (CL5741) MITC95: 3.125 µM
[2]
  Escherichia coli expressing NDM-1 (CLB 30016) MITC95: 0.5859 µM
[3]
  Escherichia coli expressing NDM-1 (CLB 30005) MITC95: 1.953 µM
[4]
  Klebsiella pneumoniae expressing VIM-1 (IHMA 599644) MITC95: 12.5 µM
IMP-1
  IC50: 22.2 nM
VIM-1
  IC50: 7.79 nM
NDM-1
  IC50: 1.43 nM

Source: patent US9708336B2, “Metallo-beta-lactamase inhibitors” (priority 2014, dated 2017)
